Experimental data published in ChEMBL document CHEMBL5344406, “1,2,3-Triazole-containing hybrids with potential antibacterial activity against ESKAPE pathogens” (2022).
≈ marks a conversion by molar mass, not a printed value. Each block holds one compound with its values, some of them ahead of it.

What was measured:
Assay type in all cases: functional
Staphylococcus aureus [1] = assay: Antibacterial activity against methicillin-resistant Staphylococcus aureus assessed as bacterial growth inhibition by agar dilution method
Staphylococcus aureus [2] = assay: Antibacterial activity against methicillin-resistant Staphylococcus aureus assessed as bacterial growth inhibition incubated for 18 hrs by absorbance based assay
Klebsiella pneumoniae = assay: Antibacterial activity against multi-drug Klebsiella pneumoniae assessed as bacterial growth inhibition incubated for 18 hrs by absorbance based assay
Acinetobacter baumannii [3] = assay: Antibacterial activity against Acinetobacter baumannii assessed as bacterial growth inhibition incubated for 18 hrs by absorbance based assay
Escherichia coli [4] = assay: Antibacterial activity against Escherichia coli assessed as bacterial growth inhibition incubated for 18 hrs by absorbance based assay
Staphylococcus aureus [5] = assay: Antibacterial activity against Ciprofloxacin-resistant Staphylococcus aureus assessed as bacterial growth inhibition
Acinetobacter baumannii [6] = assay: Antibacterial activity against Ciprofloxacin-resistant Acinetobacter baumannii assessed as bacterial growth inhibition
Escherichia coli [7] = assay: Antibacterial activity against Ciprofloxacin-resistant Escherichia coli assessed as bacterial growth inhibition
Escherichia coli [8] = assay: Antibacterial activity against Escherichia coli JM109 assessed as bacterial growth inhibition incubated for 18 to 20 hrs by broth microdilution method; details: time 18-20 hrs
Bacillus subtilis [9] = assay: Antibacterial activity against Bacillus subtilis assessed as bacterial growth inhibition incubated for 18 to 20 hrs by broth microdilution method; details: time 18-20 hrs
Escherichia coli [10] = assay: Potency index, ratio of Streptomycin MIC to test compound MIC for antibacterial activity against Escherichia coli JM109 assessed as bacterial growth inhibition incubated for 18 to 20 hrs by broth microdilution method; details: time 18-20 hrs
Bacillus subtilis [11] = assay: Potency index, ratio of Streptomycin MIC to test compound MIC for antibacterial activity against Bacillus subtilis assessed as bacterial growth inhibition incubated for 18 to 20 hrs by broth microdilution method; details: time 18-20 hrs
Staphylococcus aureus [12] = assay: Antibacterial activity against methicillin-resistant Staphylococcus aureus assessed as bacterial growth inhibition
Staphylococcus aureus [13] = assay: Antibacterial activity against Staphylococcus aureus MTCC 7443 assessed as bacterial growth inhibition incubated for 24 hrs by serial dilution method
Bacillus subtilis [14] = assay: Antibacterial activity against Bacillus subtilis MTCC 441 assessed as bacterial growth inhibition incubated for 24 hrs by serial dilution method
Staphylococcus aureus [15] = assay: Antibacterial activity against Staphylococcus aureus ATCC 25923 assessed as bacterial growth inhibition incubated for 18 to 24 hrs by turbidimetry; details: time 18-24 hrs
Escherichia coli [16] = assay: Antibacterial activity against Escherichia coli ATCC 25922 assessed as bacterial growth inhibition incubated for 18 to 24 hrs by turbidimetry; details: time 18-24 hrs
Pseudomonas aeruginosa [17] = assay: Antibacterial activity against Pseudomonas aeruginosa ATCC 27853 assessed as bacterial growth inhibition incubated for 18 to 24 hrs by turbidimetry; details: time 18-24 hrs
Bacillus subtilis [18] = assay: Antibacterial activity against Bacillus subtilis ATCC 6633 assessed as bacterial growth inhibition incubated for 18 to 24 hrs by turbidimetry; details: time 18-24 hrs
Bacillus subtilis [19] = assay: Antibacterial activity against Bacillus subtilis assessed as bacterial growth inhibition incubated for 24 hrs by serial dilution method
Salmonella enterica = assay: Antibacterial activity against Salmonella enterica assessed as bacterial growth inhibition incubated for 24 hrs by serial dilution method
Staphylococcus aureus [20] = assay: Antibacterial activity against Staphylococcus aureus assessed as bacterial growth inhibition incubated for 24 hrs by serial dilution method
Escherichia coli [21] = assay: Antibacterial activity against Escherichia coli assessed as bacterial growth inhibition incubated for 24 hrs by serial dilution method
Pseudomonas aeruginosa [22] = assay: Antibacterial activity against Pseudomonas aeruginosa assessed as bacterial growth inhibition incubated for 24 hrs by serial dilution method

MIC (Escherichia coli [8]): 0.15 µg/mL (≈ 0.253 µM)
MIC (Bacillus subtilis [9]): 0.02 µg/mL (≈ 0.0337 µM)
SMILES: Cc1cc2cc(C#CCCCCCCc3cn(C4(C(C)C)Oc5cc6oc(=O)ccc6cc5C4=O)nn3)c(=O)oc2cc1O (centres undefined)
Ratio (Escherichia coli [10]): 6.7
Ratio (Bacillus subtilis [11]): 100

MIC (Staphylococcus aureus [13]): 12.5 µg/mL (≈ 25 µM)
MIC (Bacillus subtilis [14]): 12.5 µg/mL (≈ 25 µM)
SMILES: CC(C)(NS(=O)(=O)c1ccc(Br)cc1)c1cn(-c2ccc(Br)cc2)nn1

MIC (Staphylococcus aureus [15]): 15.6 µg/mL (≈ 30.1 µM)
MIC (Escherichia coli [16]): 15.6 µg/mL (≈ 30.1 µM)
MIC (Pseudomonas aeruginosa [17]): 15.6 µg/mL (≈ 30.1 µM)
MIC (Bacillus subtilis [18]): 15.6 µg/mL (≈ 30.1 µM)
SMILES: Nc1c(C(=O)N2CCN(c3cc4c(cc3F)c(=O)c(C(=O)O)cn4C3CC3)CC2)nnn1-c1ccccc1

MIC (Bacillus subtilis [19]): 3.12 µg/mL (≈ 7.42 µM)
MIC (Salmonella enterica): 3.12 µg/mL (≈ 7.42 µM)
MIC (Staphylococcus aureus [20]): 3.12 µg/mL (≈ 7.42 µM)
MIC (Escherichia coli [21]): 3.12 µg/mL (≈ 7.42 µM)
MIC (Pseudomonas aeruginosa [22]): 3.12 µg/mL (≈ 7.42 µM)
SMILES: CC(C)C[C@H](NC(=O)OC(C)(C)C)C(=O)OCc1cn(Cc2ccc(F)cc2)nn1

Further lines, the compound ahead of its results:

SMILES: COc1cc(/C=C/c2ccc(OCc3cn(-c4ccc(C(=O)O)cc4)nn3)cc2)cc(OC)c1
MIC (Staphylococcus aureus [1]): 1.2 µg/mL (≈ 2.62 µM)

SMILES: Cc1ccc(S(=O)(=O)OCCn2cc(COc3cccc4cccnc34)nn2)cc1
MIC (Staphylococcus aureus [2]): 75.4 µg/mL (≈ 178 µM)
MIC (Klebsiella pneumoniae): 75.4 µg/mL (≈ 178 µM)
MIC (Acinetobacter baumannii [3]): 75.4 µg/mL (≈ 178 µM)
MIC (Escherichia coli [4]): 75.4 µg/mL (≈ 178 µM)

SMILES: CCOc1c(NC(=O)c2ccc(NC(=O)c3ccc(NC(=O)[C@H](Cc4c[nH]nn4)NC(=O)/C(C)=C/c4ccc(O)cc4)cc3)c(OCC)c2O)ccc(C(=O)O)c1O
MIC (Staphylococcus aureus [5]): 0.031 µg/mL (≈ 0.0391 µM)
MIC (Acinetobacter baumannii [6]): 0.031 µg/mL (≈ 0.0391 µM)
MIC (Escherichia coli [7]): 0.031 µg/mL (≈ 0.0391 µM)

SMILES: O=C1C(=O)N(CCn2cc(COc3cccc4cccnc34)nn2)c2c(Br)cc(Br)cc21
MIC (Staphylococcus aureus [12]): 15.2 µg/mL (≈ 27.3 µM)
